Reference: US9717241B2, “Increased tolerance of DHT-enabled plants to auxinic herbicides resulting from moiety differences in auxinic herbicide molecular structures” (priority 2011, dated 2017)

How the values were obtained:
AMARE = assay: Weed control in AAD-1 cotton field plots; assay type: in vivo; conditions: 1120 g ae/ha, 3 WAA (maximum control), n = 36 plots
Protocol: (§1) An experiment to compare the efficacies of 2,4-DB and 2,4-D to control weeds in AAD-1 cotton was conducted at nine field sites located near Greenville, Miss. (3 locations); Chula, Ga.; Macon County, Ga.; Attapulgus, Ga.; Memphis, Tenn.; Newport, Ark.; and Fresno, Calif. The experimental design was four replications per site with treatment plots in randomized complete blocks. Each plot had AAD-1-cotton plants in two rows that were 20 feet in length. Weed and cotton plants were targeted at two to six inches in height for a single-application treatment. Treatments consisted of Butyrac 200 (2,4-DB) and Weedar 64 (2,4-D) applied to plots at 560, 840, and 1120 g ae/ha. Weed species were visually assessed once per week for three weeks after herbicide application for the percentage plants (0-100%, where 0 represents no activity or a control and 100% represents death of the target plant) killed or showing severe herbicide-related injury.
(§2) For nearly all targeted species and for each week of measurement, greater levels of control were obtained with increasing application rates of 2,4-DB or 2,4-D, with the greatest control from 1120 g ae/ha. Therefore, based on efficacy, 1120 g ae/ha is the preferred application rate of the three rates tested to control weeds in AAD-1 cotton. At 1120 g ae/ha, control was classified as either ≦80%, >80%, or >90% of weed plants killed or seriously injured.

ACCOS = assay: Weed control in AAD-1 cotton field plots; assay type: in vivo; conditions: 1120 g ae/ha, 3 WAA (maximum control), n = 36 plots
Protocol: as §1, §2

IPOSS = assay: Weed control in AAD-1 cotton field plots; assay type: in vivo; conditions: 1120 g ae/ha, 3 WAA (maximum control), n = 36 plots
Protocol: as §1, §2

CASOB = assay: Weed control in AAD-1 cotton field plots; assay type: in vivo; conditions: 1120 g ae/ha, 3 WAA (maximum control), n = 36 plots
Protocol: as §1, §2

SEBEX = assay: Weed control in AAD-1 cotton field plots; assay type: in vivo; conditions: 1120 g ae/ha, 3 WAA (maximum control), n = 36 plots
Protocol: as §1, §2

ACNHI = assay: Weed control in AAD-1 cotton field plots; assay type: in vivo; conditions: 1120 g ae/ha, 2 WAA (maximum control), n = 36 plots
Protocol: as §1, §2

SIDSP = assay: Weed control in AAD-1 cotton field plots; assay type: in vivo; conditions: 1120 g ae/ha, 3 WAA (maximum control), n = 36 plots
Protocol: as §1, §2

RCHSC = assay: Weed control in AAD-1 cotton field plots; assay type: in vivo; conditions: 1120 g ae/ha, 3 WAA (maximum control), n = 36 plots
Protocol: as §1, §2

IPOHG = assay: Weed control in AAD-1 cotton field plots; assay type: in vivo; conditions: 1120 g ae/ha, 2 WAA (maximum control), n = 36 plots
Protocol: as §1, §2

SOLNI = assay: Weed control in AAD-1 cotton field plots; assay type: in vivo; conditions: 1120 g ae/ha, 3 WAA (maximum control), n = 36 plots
Protocol: as §1, §2

IAQTA = assay: Weed control in AAD-1 cotton field plots; assay type: in vivo; conditions: 1120 g ae/ha, 2 WAA (maximum control), n = 36 plots
Protocol: as §1, §2

AAD-1 cotton [1] = assay: Crop injury over time on AAD-1 cotton, field experiment near Tifton, Ga.; assay type: in vivo, Cotton (Gossypium spp.); conditions: n = 3 plots
Protocol: (§3) By “injury” it is meant the percentage of foliage that is epinastic (has leaf droop, leaf rolling, petiole curvature) as visually assessed by one skilled in the art. The reduced injury from 2,4-DB relative to 2,4-D is observable within minutes after application of these herbicides and continues to be observable for an extended time period thereafter, such as from 2 hrs after application to 30 days after application, including 3 hours after application to 19 days after application and further including 6 hours after application to 24 hours after application.
(§4) To evaluate the tolerance of AAD-1-cotton plants to the effects of 2,4-DB and 2,4-D herbicide compounds, the herbicides Butyrac 200 (2,4-DB) and Weedar 64 (2,4-D) were applied individually by broadcast spraying over AAD-1-cotton plants in two field experiments.
Another experiment was conducted at one field location at the University of Georgia Ponder Farm, near Tifton, Ga. The experimental design was three replications with plots in randomized complete blocks. Each plot had AAD-1-cotton plants in one row that was 25 feet in length. Cotton plants were targeted at […] in height (6-leaf stage) for single-application treatment. Treatments consisted of Butyrac 200 (2,4-DB) applied at 280, 560, 1120, and 2240 g ae ha; and Weedar 64 (2,4-D) applied at 560 and 1120 g ae/ha. AAD-1-cotton plants were visually assessed for the percentage of foliage showing herbicide-related injury on days—0, 1, 2, 19, and 45 after application.

AMAPA = assay: Weed control in AAD-1 cotton field plots; assay type: in vivo, Amaranthus palmeri; conditions: 1120 g ae/ha, 3 WAA (maximum control), n = 36 plots
Protocol: as §1, §2

AAD-1 cotton [2] = assay: Crop injury on AAD-1 cotton, field experiment at four locations; assay type: in vivo, Cotton (Gossypium spp.); conditions: epinastic foliage per plot, n = 16 plots
Protocol: as §3, §4
One experiment was conducted at four field locations near Greenville, Miss.; Brinson, Ga.; Memphis, Tenn.; and Fresno, Calif. The experimental design was four replications per site with treatment plots in randomized complete blocks. Each plot had AAD-1-cotton plants in two rows that were 20 feet in length. Cotton plants were targeted at two to four inches in height for single-application treatment. Treatments consisted of Butyrac 200 (2,4-DB) applied at 560, 840, 1120, 1680, and 2240 g ae/ha; and Weedar 64 (2,4-D) applied at 840 and 1120 g ae/ha. AAD-1-cotton plants were visually assessed for the percentage of foliage showing herbicide-related injury one day after application.

AMASS = assay: Weed control in AAD-1 cotton field plots; assay type: in vivo, All Amaranthus species excluding AMAPA; conditions: 1120 g ae/ha, 3 WAA (maximum control), n = 36 plots
Protocol: as §1, §2

AAD-12 cotton = assay: Crop injury over time on AAD-12 cotton, greenhouse experiment; assay type: in vivo, Cotton (Gossypium spp.); conditions: n = 4 plants
Protocol: as §3
To evaluate the tolerance of AAD-12-cotton plants to the effects of 2,4-DB and 2,4-D herbicide compounds, the herbicides DB Straight (2,4-DB) and Weedar 64 (2,4-D) were applied individually by spraying over AAD-12-cotton plants in one greenhouse experiment. The four treatments consisted of two application rates, 1120 and 2240 g ae/ha, for each of the two herbicides. The experimental design was four replications of single AAD-12-cotton plants per treatment. The plants were grown in pots. Treatments were not randomized. Plants were at the 3- to 4-leaf stage when sprayed. The sprayed AAD-12-cotton plants were visually assessed for the percentage of foliage showing herbicide-related injury on days-0, 1, 2, 4, and 12 after application.

O=C(O)COc1ccc(Cl)cc1Cl [2,4-D]
Percentage Control of Target Weeds (AMARE): 93% | Percentage Control of Target Weeds (ACCOS): 90% | Percentage Control of Target Weeds (IPOSS): 99% | Percentage Control of Target Weeds (CASOB): 98% | Percentage Control of Target Weeds (SEBEX): 88% | Percentage Control of Target Weeds (ACNHI): 99% | Percentage Control of Target Weeds (SIDSP): 89% | Percentage Control of Target Weeds (RCHSC): 97% | Percentage Control of Target Weeds (IPOHG): 100% | Percentage Control of Target Weeds (SOLNI): 93% | Percentage Control of Target Weeds (IAQTA): 99% | Mean Injury (%) (AAD-1 cotton [1]; 560 g ae/ha, 0 DAA): 6.7 ab % | Mean Injury (%) (AAD-1 cotton [1]; 560 g ae/ha, 1 DAA): 6.7 b % | Mean Injury (%) (AAD-1 cotton [1]; 560 g ae/ha, 2 DAA): 4.0 bc % | Mean Injury (%) (AAD-1 cotton [1]; 560 g ae/ha, 19 DAA): 1.7 a % | Mean Injury (%) (AAD-1 cotton [1]; 560 g ae/ha, 45 DAA): 3.3 a % | Mean Injury (%) (AAD-1 cotton [1]; 1120 g ae/ha, 0 DAA): 23.3 c % | Mean Injury (%) (AAD-1 cotton [1]; 1120 g ae/ha, 1 DAA): 14.0 c % | Mean Injury (%) (AAD-1 cotton [1]; 1120 g ae/ha, 2 DAA): 4.7 c % | Mean Injury (%) (AAD-1 cotton [1]; 1120 g ae/ha, 19 DAA): 5.0 b % | Mean Injury (%) (AAD-1 cotton [1]; 1120 g ae/ha, 45 DAA): 2.3 a % | Percentage Control of Target Weeds (AMAPA): 89% | Mean Injury 1 DAA, Injury (%) (AAD-1 cotton [2]; 840 g ae/ha post-emergence): 7.4% | Mean Injury 1 DAA, Injury (%) (AAD-1 cotton [2]; 1120 g ae/ha post-emergence): 13.0% | Percentage Control of Target Weeds (AMASS): 92% | Mean Injury (%) (AAD-12 cotton; 1120 g ae/ha, 0 DAA): 0.5 a % | Mean Injury (%) (AAD-12 cotton; 1120 g ae/ha, 1 DAA): 2.3 ab % | Mean Injury (%) (AAD-12 cotton; 1120 g ae/ha, 2 DAA): 3.0 a % | Mean Injury (%) (AAD-12 cotton; 1120 g ae/ha, 4 DAA): 3.0 b % | Mean Injury (%) (AAD-12 cotton; 1120 g ae/ha, 12 DAA): 3.0 a % | Mean Injury (%) (AAD-12 cotton; 2240 g ae/ha, 0 DAA): 1.3 a % | Mean Injury (%) (AAD-12 cotton; 2240 g ae/ha, 1 DAA): 4.3 a % | Mean Injury (%) (AAD-12 cotton; 2240 g ae/ha, 2 DAA): 3.8 a % | Mean Injury (%) (AAD-12 cotton; 2240 g ae/ha, 4 DAA): 6.8 a % | Mean Injury (%) (AAD-12 cotton; 2240 g ae/ha, 12 DAA): 3.0 a %

O=C(O)CCCOc1ccc(Cl)cc1Cl [2,4-DB, 4-(2,4-dichlorophenoxy) butyric acid]
Percentage Control of Target Weeds (AMARE): 89% | Percentage Control of Target Weeds (ACCOS): 88% | Percentage Control of Target Weeds (IPOSS): 99% | Percentage Control of Target Weeds (CASOB): 100% | Percentage Control of Target Weeds (SEBEX): 89% | Percentage Control of Target Weeds (ACNHI): 99% | Percentage Control of Target Weeds (SIDSP): 84% | Percentage Control of Target Weeds (RCHSC): 99% | Percentage Control of Target Weeds (IPOHG): 100% | Percentage Control of Target Weeds (SOLNI): 89% | Percentage Control of Target Weeds (IAQTA): 99% | Mean Injury (%) (AAD-1 cotton [1]; 280 g ae/ha, 0 DAA): 1.7 a % | Mean Injury (%) (AAD-1 cotton [1]; 280 g ae/ha, 1 DAA): 0.7 a % | Mean Injury (%) (AAD-1 cotton [1]; 280 g ae/ha, 2 DAA): 1.3 ab % | Mean Injury (%) (AAD-1 cotton [1]; 280 g ae/ha, 19 DAA): 0.0 a % | Mean Injury (%) (AAD-1 cotton [1]; 280 g ae/ha, 45 DAA): 0.0 a % | Mean Injury (%) (AAD-1 cotton [1]; 560 g ae/ha, 0 DAA): 2.7 a % | Mean Injury (%) (AAD-1 cotton [1]; 560 g ae/ha, 1 DAA): 0.0 a % | Mean Injury (%) (AAD-1 cotton [1]; 560 g ae/ha, 2 DAA): 0.7 a % | Mean Injury (%) (AAD-1 cotton [1]; 560 g ae/ha, 19 DAA): 0.7 a % | Mean Injury (%) (AAD-1 cotton [1]; 560 g ae/ha, 45 DAA): 0.0 a % | Mean Injury (%) (AAD-1 cotton [1]; 1120 g ae/ha, 0 DAA): 5.0 ab % | Mean Injury (%) (AAD-1 cotton [1]; 1120 g ae/ha, 1 DAA): 0.7 a % | Mean Injury (%) (AAD-1 cotton [1]; 1120 g ae/ha, 2 DAA): 1.3 ab % | Mean Injury (%) (AAD-1 cotton [1]; 1120 g ae/ha, 19 DAA): 0.0 a % | Mean Injury (%) (AAD-1 cotton [1]; 1120 g ae/ha, 45 DAA): 1.7 a % | Mean Injury (%) (AAD-1 cotton [1]; 2240 g ae/ha, 0 DAA): 9.3 b % | Mean Injury (%) (AAD-1 cotton [1]; 2240 g ae/ha, 1 DAA): 2.0 a % | Mean Injury (%) (AAD-1 cotton [1]; 2240 g ae/ha, 2 DAA): 3.3 abc % | Mean Injury (%) (AAD-1 cotton [1]; 2240 g ae/ha, 19 DAA): 0.7 a % | Mean Injury (%) (AAD-1 cotton [1]; 2240 g ae/ha, 45 DAA): 0.0 a % | Percentage Control of Target Weeds (AMAPA): 81% | Mean Injury 1 DAA, Injury (%) (AAD-1 cotton [2]; 560 g ae/ha post-emergence): 2.3% | Mean Injury 1 DAA, Injury (%) (AAD-1 cotton [2]; 840 g ae/ha post-emergence): 4.1% | Mean Injury 1 DAA, Injury (%) (AAD-1 cotton [2]; 1120 g ae/ha post-emergence): 2.8% | Mean Injury 1 DAA, Injury (%) (AAD-1 cotton [2]; 1680 g ae/ha post-emergence): 4.5% | Mean Injury 1 DAA, Injury (%) (AAD-1 cotton [2]; 2240 g ae/ha post-emergence): 6.3% | Percentage Control of Target Weeds (AMASS): 77% | Mean Injury (%) (AAD-12 cotton; 1120 g ae/ha, 0 DAA): 0.0 a % | Mean Injury (%) (AAD-12 cotton; 1120 g ae/ha, 1 DAA): 1.8 ab % | Mean Injury (%) (AAD-12 cotton; 1120 g ae/ha, 2 DAA): 0.0 a % | Mean Injury (%) (AAD-12 cotton; 1120 g ae/ha, 4 DAA): 1.0 b % | Mean Injury (%) (AAD-12 cotton; 1120 g ae/ha, 12 DAA): 1.0 a % | Mean Injury (%) (AAD-12 cotton; 2240 g ae/ha, 0 DAA): 0.0 a % | Mean Injury (%) (AAD-12 cotton; 2240 g ae/ha, 1 DAA): 0.0 b % | Mean Injury (%) (AAD-12 cotton; 2240 g ae/ha, 2 DAA): 0.0 a % | Mean Injury (%) (AAD-12 cotton; 2240 g ae/ha, 4 DAA): 0.5 b % | Mean Injury (%) (AAD-12 cotton; 2240 g ae/ha, 12 DAA): 3.3 a %
